In publication PMC12016938, “A small molecule PKCε inhibitor reduces hyperalgesia induced by paclitaxel or opioid withdrawal” (JCI Insight, 2025):
Values joined by “and” are separate entries in the source; they are usually repeats but may differ in a detail not shown here. Identical values can stand only once. Counter-ions that a name gives are not always drawn.

Test system: hyperalgesia induced by morphine withdrawal
Assay: Time course of hyperalgesia induced by morphine withdrawal, von Frey SUDO
Conditions: for von Frey filament number that led to paw withdrawal: single male mouse; for Hyperalgesia after withdrawal from repeated morphine: male C57BL/6J mice, 20–100 mg/kg i.p. twice daily 5 days

**Q.** How did the “von Frey filament number that led to paw withdrawal” value (“von Frey filament number that led” for short) (1week after last morphine injection) turn out when `CN1CC[C@]23c4c5ccc(O)c4O[C@H]2[C@@H](O)C=C[C@H]3[C@H]1C5` [Morphine, Morphine sulfate, reference compound] was run?
**A.** 5.5 filament number and 7.5 filament number and 6 filament number

**Q.** And the “von Frey filament number that led” value (6h after last morphine injection)?
**A.** 7.5 filament number and 9.5 filament number and 8 filament number and 7 filament number

**Q.** What about the “von Frey filament number that led” value (24h after last morphine injection) of the same compound?
**A.** 5.5 filament number and 6.5 filament number and 6 filament number and 7.5 filament number

**Q.** And the “von Frey filament number that led” value (Baseline)?
**A.** 7.5 filament number and 8.5 filament number and 8 filament number and 9.5 filament number

**Q.** What about the “Hyperalgesia after withdrawal from repeated morphine” value (6 hours after last injection) of the same compound?
**A.** not present

**Q.** And the “Hyperalgesia after withdrawal from repeated morphine” value (24 hours and 1 week after last injection)?
**A.** present
